Measured values published in PMC10449621, “Engineering cellular communication between light-activated synthetic cells and bacteria” (Nature Chemical Biology, 2023).
Several values for one entry are separate records, joined by “and”; a condition that tells them apart may be missing. Equal entries are not always repeated.

Legend:
[1] = tested on: BjaRS107R (B0034|CTG) receiver cells; assay: BjaR receiver cell AHSL dose-response (gfp reporter, plate reader); format: cell-based, E. coli XL10-Gold
Procedure: (§1) After four rounds of random mutagenesis, ON-selection and outgrowth, the OFF- and ON-states of 45 BjaR variants were screened by measuring their GFP fluorescence in the absence and presence of 1 nM IV-HSL. […] To understand the true impact of these mutations on receiver cell performance, the bjaRS107R (CTG) and bjaRWT (ACG) genes were cloned back into the reporter plasmid backbone without kanR.
(§2) The BjaR reporter plasmids were retransformed into E. coli XL10-Gold cells for each experiment. A single colony was used to inoculate 5 ml LB + Amp media and incubated at 37 °C, 225 r.p.m. overnight. Overnight cultures were diluted 1/250 or 1/500 in 5 ml M9 minimal media + Amp and incubated at 37 °C, 225 r.p.m. for 3 h and 45 min (until OD600 = ~0.075). Cultures were diluted down to OD600 = 0.05 with M9 minimal media + Amp, and 200 µl was added to wells of a 96-well plate containing 1 µl IV-HSL dissolved in DMSO or 1 µl BjaI CFPS reactions (IV-HSL concentrations obtained from serial dilution from 63.2 µM to 632 pM; final DMSO concentration = 0.5%). Cells were incubated at 37 °C, 800 r.p.m., in a thermomixer with a heated lid for 4 h. Fluorescence and OD600 were measured in a Tecan M1000 infinite plate reader (excitation, 488 nm; emission, 510 nm; bandwidth, 5 nm; gain, 101 and z position, 21,311 µm). The dose–response curves were fitted to the function indicated by Eq. (1), where a = maximal fluorescence output, b = basal fluorescence output, X = concentration of AHSL, GFP = fluorescence at the given condition, EC50 = AHSL at 50% maximal fluorescence output and h = hill coefficient. EC50 and h were derived using the nonlinear regression model based on Eq. (1), in MATLAB. A summary of the dose–response data is available in Supplementary Table 1.1 GFP=b+a−b/1+10^logEC50−X×h

[2] = tested on: BjaRWT (B0034|ACG) receiver cells; assay: as above; format: cell-based, E. coli XL10-Gold
Procedure: as §1, §2

[3] = Escherichia coli, IV-HSL-activated gfp expression

In the case of CC(C)CC(=O)N[C@H]1CCOC1=O [IV-HSL, N-isovaleryl-L-homoserine lactone], the EC50 [1, 3] is reported as 0.44 ± 0.04 nM, the GFP ([1]; Log([ASHL]) -6.5) is reported as 37925 and 45810 and 36660 and the Mean normalised fluorescence ([1]; Log([ASHL]) -6.5) is reported as 184153. The Normalised fluorescence ([1]; Log([ASHL]) -6.5) was 205027 and 170089 and 177344, the GFP ([1]; Log([ASHL]) -7) was 36122 and 43880 and 35340 and the Mean normalised fluorescence ([1]; Log([ASHL]) -7) was 165547. The Normalised fluorescence ([1]; Log([ASHL]) -7) was 185321 and 153601 and 157719, the GFP ([1]; Log([ASHL]) -7.5) was 35735 and 43795 and 35365 and the Mean normalised fluorescence ([1]; Log([ASHL]) -7.5) was 163310. The Normalised fluorescence ([1]; Log([ASHL]) -7.5) was 180638 and 151602 and 157690, the GFP ([1]; Log([ASHL]) -8) was 43912 and 35147 and 35505 and the Mean normalised fluorescence ([1]; Log([ASHL]) -8) was 161376. For the same compound, the Normalised fluorescence ([1]; Log([ASHL]) -8) was 150185 and 151700 and 182243, the GFP ([1]; Log([ASHL]) -8.5) was 44967 and 35318 and 37269 and the Mean normalised fluorescence ([1]; Log([ASHL]) -8.5) was 147580. For the same compound, the Normalised fluorescence ([1]; Log([ASHL]) -8.5) was 140866 and 144147 and 157727, the GFP ([1]; Log([ASHL]) -9) was 41968 and 33264 and 37415 and the Mean normalised fluorescence ([1]; Log([ASHL]) -9) was 127915. For the same compound, the Normalised fluorescence ([1]; Log([ASHL]) -9) was 124650 and 118620 and 140474, the GFP ([1]; Log([ASHL]) -9.5) was 22707 and 17817 and 19857 and the Mean normalised fluorescence ([1]; Log([ASHL]) -9.5) was 69560.7. For the same compound, the Normalised fluorescence ([1]; Log([ASHL]) -9.5) was 65949.9 and 69200.5 and 73531.6, the GFP ([1]; Log([ASHL]) -10) was 5295 and 3943 and 4882 and the Mean normalised fluorescence ([1]; Log([ASHL]) -10) was 15714.4. The Normalised fluorescence ([1]; Log([ASHL]) -10) was 15242.3 and 14666.4 and 17234.6, the GFP ([1]; Log([ASHL]) -10.5) was 1534 and 1232 and 1622 and the Mean normalised fluorescence ([1]; Log([ASHL]) -10.5) was 4749.74. For the same compound, the Normalised fluorescence ([1]; Log([ASHL]) -10.5) was 4305.92 and 4298.44 and 5644.87, the GFP ([1]; Log([ASHL]) -11) was 1122 and 884 and 1057 and the Mean normalised fluorescence ([1]; Log([ASHL]) -11) was 3184.98. For the same compound, the Normalised fluorescence ([1]; Log([ASHL]) -11) was 3030.92 and 3019.01 and 3505.01, the GFP ([1]; Log([ASHL]) -11.5) was 784 and 731 and 617 and the Mean normalised fluorescence ([1]; Log([ASHL]) -11.5) was 2156.19. For the same compound, the Normalised fluorescence ([1]; Log([ASHL]) -11.5) was 2102.93 and 2315.04 and 2050.6, the “fold activation of gfp expression” value ([1]; with vs without IV-HSL) was ~ 88 fold and the EC50 [2, 3] was 22.3 ± 2.59 nM. For the same compound, the GFP ([2]; Log([ASHL]) -6.5) was 41705 and 34148 and 40466, the Mean normalised fluorescence ([2]; Log([ASHL]) -6.5) was 152634 and the GFP ([2]; Log([ASHL]) -7) was 36443 and 32999 and 38903. The Mean normalised fluorescence ([2]; Log([ASHL]) -7) was 132540, the GFP ([2]; Log([ASHL]) -7.5) was 26920 and 30479 and 35001 and the Mean normalised fluorescence ([2]; Log([ASHL]) -7.5) was 111442. The GFP ([2]; Log([ASHL]) -8) was 23596 and 24216 and 12337, the Mean normalised fluorescence ([2]; Log([ASHL]) -8) was 70550.8 and the Mean normalised fluorescence ([2]; Log([ASHL]) -8.5) was 28355.7. For the same compound, the Mean normalised fluorescence ([2]; Log([ASHL]) -9) was 6838.99, the Mean normalised fluorescence ([2]; Log([ASHL]) -9.5) was 1496.47 and the GFP ([2]; Log([ASHL]) -10) was 268 and 258 and 219. For the same compound, the Mean normalised fluorescence ([2]; Log([ASHL]) -10) was 638.735, the GFP ([2]; Log([ASHL]) -10.5) was 198 and 199 and 217 and the Mean normalised fluorescence ([2]; Log([ASHL]) -10.5) was 483.533. For the same compound, the GFP ([2]; Log([ASHL]) -11) was 195 and 198 and 217, the Mean normalised fluorescence ([2]; Log([ASHL]) -11) was 487.314 and the GFP ([2]; Log([ASHL]) -11.5) was 199 and 225 and 193. The Mean normalised fluorescence ([2]; Log([ASHL]) -11.5) was 497.83 and the “fold activation of gfp expression” value ([2]; with vs without IV-HSL) was ~ 309 fold.
